Converted amounts (≈) assume the structure as drawn. Like-named read-outs stand apart in the source and are kept apart here. Bridge positions count the residues as written; N and C are the ends. Square brackets hold non-standard residues; d marks the D form. Peptide text beside a SMILES is read from it. I, II: the chains in the order shown.
Key:
[1] = test system: Candida albicans SC5314; assay type: cell-based; settings: for percent of C. albicans killed at 5 μM concentration: SC5314, 5
Procedure: Killing assays. The fungicidal activity of the peptides toward Candida albicans was examined by microdilution plate assay as described previously (13). Briefly, from a fresh overnight cultured plate, a single colony was inoculated and diluted in 1 ml of 10 mM sodium phosphate buffer at pH 7.4. Once cell counts had been confirmed by using a hemocytometer, the cells diluted within the same buffer at 1.8×10^5 cells/mil. Cell suspensions of 20 μl were mixed with 20 μl of peptide, which were dissolved in 10 mM sodium phosphate buffer at pH 7.4, and then incubated for 2 hours at 37° C. with shaking at speeds of 550 rpm. The reactions were stopped by the addition of 360 μl yeast nitrogen base (YNB) and then 40 μl of cell suspension was spread onto plates and incubated for 24 hours at 37° C. Sabouraud dextrose agar plates were used for C. albicans killing assay. The number of colony-forming units (CFUs) was counted and each assay was repeated in triplicate. Loss of viability was calculated as [1-(colonies from suspension with peptide/colonies from suspension with no peptide)]×100. For the respiratory activity experiments, Candida albicans was grown in the presence of sodium azide or antimycin A (Sigma Aldrich) before the killing assay was performed.

[2] = test system: CD1 mice; assay: Acute toxicity testing in CD1 mice (up-down protocol); assay type: in vivo; settings: for signs observed on tested animals: IV
Procedure: To evaluate acute toxicity in animals, CD1 outbred mice were injected via tail vein with either KM12 or KM14 using a standard up-down concentration protocol and observed for any symptoms consistent with the toxicity of the peptides (Table 4). Mice were initially injected with KM12 or KM14 at a concentration of 8 mg/kg. […] Thus the KM12 peptide was deemed safe for animals at concentrations up to 10 mg/kg and the use of 5% glucose versus phosphate-buffered saline was deemed safer for administration to the animals. We will continue to evaluate acute toxicity with other KM peptides (i.e. KM23 and KM29) that show excellent promise as antifungal compounds. In addition, we plan to evaluate these peptides for treatment of superficial mucosal infections with Candida species.
(§1) Animal Studies: For the animal studies, CD-1 mice of 8-25 grams were injected with the antifungal peptides dissolved in either phosphate-buffered saline or 5% glucose. Peptide concentrations used for the injection of mice were chosen using a standard up-down protocol starting at 8 mg/kg. Peptides were injected into mice intravenously, intramuscularly, or intraperitoneally as indicated. The mice were closely monitored lbr signs of distress after injection. After two hours of continuous monitoring, the mice were evaluated daily for two weeks and necropsies performed after two weeks. For evaluating the immunogenicity of the peptides, mice were injected with peptides at a concentration of 10 mg/kg in 5% glucose. The routes of injection were intravenous, intramuscular, or intraperitoneal. Five mice were injected with the peptide per route of injection. The mice were injected with the same dose of peptide once per month for four months. The mice were monitored for signs of distress after each injection. At the end of the fifth month, the mice were euthanized by an overdose of anesthesia and the serum was collected from each mouse individually as assay for activity against the peptide using dot blots.

[3] = test system: CD1 mice; assay: Immunogenicity in mice, serum dot blot for antibodies against the peptide; assay type: in vivo
Procedure: Small peptides have the potential to induce an immune response when used for therapeutic purposes. To examine this possibility, mice were injected once per month for four months with 10 mg/kg of the KM12 peptide either by intravenous, intramuscular, or intraperitoneal route. After the fifth month, the mice were euthanized and the serum collected and tested by dot blot analysis for antibodies directed against the KM12 peptide. For each route of injection, five CD1 mice were used. […] It is plausible that the smaller size of those peptides may not elicit an immune response, yet be effect as antifungals. Such studies are currently underway on KM23 and KM29.
as §1

[4] = protein binding evaluation using bovine calf serum (disulfide bond stability); assay type: in vitro ADME
Description: To alleviate that difficulty, two additional peptides were synthesized, KM23 and KM29. The KM23 peptide was identical in sequence to KM12 except the cysteine residues were removed resulting in a peptide with the sequence Y -K-R-K-F-F-K-R-K-Y (SEQ ID NO: 3). Since there were two phenylalanines at the center of this symmetrical peptide another peptide, designated KM29 was synthesized to yield the symmetric peptide Y-K-R-K-F-K-R-K-Y (SEQ ID NO: 4) with one phenylalanine at the center.

[5] = test system: Candida lucitaniae ATCC200951; assay: Minimum inhibitory concentration (MIC) assay with resazurin; assay type: cell-based; settings: 0.125X RPMI medium, range of three independent experiments
Description: (§2) Minimum Inhibitory Concentration Assays: MIC assays were used to evaluate the minimum concentration of each antifungal peptide that would lead to 100% inhibition of growth. In the MIC assay, the colorimetric indicator, resazurin, is used to evaluate cell growth. Resazurin turns pink after reduction by living cells, indicating active cell growth. The unchanged blue color indicated no active cell growth. Colorimetric MIC end-points are interpreted as the lowest drug concentration that remained blue. The lowest dilution that changed from blue to slightly purple is indicative of significant cell growth inhibition; whereas a pink color indicates no growth inhibition. Each individual Candida species was assayed a minimum of three times and the results represent the range of MIC values obtained. The MIC assay was performed as described by the National Committee for Clinical Laboratory Standards M27-A, except we include resazurin as an indicator dye rather than visual inspection and the […] tissue culture medium was used at 0.125× concentration for our assays.

[6] = test system: Candida kefyr ATCC4135; assay: as above; assay type: cell-based; settings: 0.125X RPMI medium, range of three independent experiments
Description: as §2

[7] = test system: Candida krusel ATCC6258; assay: as above; assay type: cell-based; settings: 0.125X RPMI medium, range of three independent experiments
Description: as §2

[8] = test system: Candida albicans SC5314; assay: as above; assay type: cell-based; settings: 0.125X RPMI medium, range of three independent experiments
Description: as §2

[9] = test system: Candida glabrata ATCC90030; assay: as above; assay type: cell-based; settings: 0.125X RPMI medium, range of three independent experiments
Description: as §2

[10] = test system: Candida tropicalis ATCC750; assay: as above; assay type: cell-based; settings: 0.125X RPMI medium, range of three independent experiments
Description: as §2

## CC(=O)N[C@@H](Cc1ccccc1)C(=O)N[C@@H](CCCCN)C(=O)N[C@@H](CCCNC(=N)N)C(=O)N[C@@H](CCCCN)C(=O)N[C@@H](Cc1ccc(O)cc1)C(N)=O [KM5, F-K-R-K-Y] (Ac-FKRKY-NH2)
[1]; 25 μM peptide, Candida albicans SC5314
  Percent killing activity at 25 μM concentration: 85%
[1]; Candida albicans SC5314, 2 hours at 37° C., calculated using a linear regression equation
  LD50 (dose of peptide required to achieve 50% killing): 5 µM

## CC(=O)N[C@H](Cc1ccccc1)C(=O)N[C@H](CCCCN)C(=O)N[C@H](CCCNC(=N)N)C(=O)N[C@H](CCCCN)C(=O)N[C@H](Cc1ccc(O)cc1)C(N)=O [KM6, dF-dK-dR-dK-dY] (Ac-[dF][dK][dR][dK][dY]-NH2)
[1]; Candida albicans SC5314
  antifungal activity relative to comparator peptides (in words): equivalent antifungal activity

## CC(=O)N[C@@H](Cc1ccccc1)C(=O)N[C@@H](CCCCN)C(=O)N1CCC[C@H]1C(=O)N[C@@H](CCCCN)C(=O)N[C@@H](Cc1ccc(O)cc1)C(N)=O [KM7, FKPKY] (Ac-FKPKY-NH2)
[1]; SC5314, 25
  Percent killing activity at 25 μM concentration: 3%

## CC(=O)N[C@@H](Cc1ccccc1)C(=O)N[C@@H](CCCCN)C(=O)N[C@@H](CO)C(=O)N[C@@H](CCCCN)C(=O)N[C@@H](Cc1ccc(O)cc1)C(N)=O [KM8, FKSKY] (Ac-FKSKY-NH2)
[1]; SC5314, 25
  Percent killing activity at 25 μM concentration: 0%

## CC(=O)N[C@@H](Cc1ccccc1)C(=O)N[C@@H](CCCCN)C(=O)N[C@@H](CCCNC(=N)N)C(=O)N[C@@H](CCCCN)C(=O)N[C@@H](Cc1ccccc1)C(N)=O [KM9, FKRKF] (Ac-FKRKF-NH2)
[1]; SC5314, 25
  Percent killing activity at 25 μM concentration: 70%

## CC(=O)N[C@@H](CCCCN)C(=O)N[C@@H](Cc1ccccc1)C(=O)N[C@@H](CCCNC(=N)N)C(=O)N[C@@H](Cc1ccc(O)cc1)C(=O)N[C@@H](CCCCN)C(N)=O [KM10, KFRYK] (Ac-KFRYK-NH2)
[1]; SC5314, 25
  Percent killing activity at 25 μM concentration: 55%

## CC(=O)N[C@@H](CS)C(=O)N[C@@H](Cc1ccccc1)C(=O)N[C@@H](CCCCN)C(=O)N[C@@H](CCCNC(=N)N)C(=O)N[C@@H](CCCCN)C(=O)N[C@@H](Cc1ccc(O)cc1)C(N)=O [KM11, C-F-K-R-K-Y] (Ac-CFKRKY-NH2)
[1]; Candida albicans SC5314
  antifungal activity relative to comparator peptides (in words): did not alter its antifungal activity
[1]; SC5314, 25
  Percent killing activity at 25 μM concentration: 95%

## CC(=O)N[C@@H](CSSC[C@H](NC(C)=O)C(=O)N[C@@H](Cc1ccccc1)C(=O)N[C@@H](CCCCN)C(=O)N[C@@H](CCCNC(=N)N)C(=O)N[C@@H](CCCCN)C(=O)N[C@@H](Cc1ccc(O)cc1)C(N)=O)C(=O)N[C@@H](Cc1ccccc1)C(=O)N[C@@H](CCCCN)C(=O)N[C@@H](CCCNC(=N)N)C(=O)N[C@@H](CCCCN)C(=O)N[C@@H](Cc1ccc(O)cc1)C(N)=O [KM12, Y-K-R-K-F-C-----C-F-K-R-K-Y]
[2]; 8 mg/kg, in PBS, CD1 mice
  signs observed on tested animals: no toxicity and None
[2]; 10 mg/kg, IM, IP, in 5% glucose, CD1 mice (n = 15)
  signs observed on tested animals: no major toxicity and None
[2]; 10 mg/kg, in PBS, CD1 mice (n = 5)
  signs observed on tested animals: None
[2]; 16 mg/kg, in 5% glucose, CD1 mice (n = 2)
  signs observed on tested animals: Convulsion, no death
[2]; intravenous, intramuscular or intraperitoneal route
  dosage deemed safe / well-tolerated in mice: up to 10 mg/kg
[3]; 10 mg/kg once per month for four months, intramuscular injection
  mice displaying a weak immune response (antibodies against the peptide): 1/5
[3]; 10 mg/kg once per month for four months, intraperitoneal injection
  mice displaying an immune response (antibodies against the peptide): 0/5
[3]; 10 mg/kg once per month for four months, intravenous injection
  mice showing a moderate immune response (antibodies against the peptide): 1/5
[3]; CD1 mice, 10 mg/kg monthly, IV, IM or IP
  immunogenicity (overall, in words): weakly immunogenic
[4]
  stability of the disulfide bond in bovine calf serum: readily reduced

## CC(=O)N[C@@H](CSSC[C@H](NC(C)=O)C(=O)N[C@@H](Cc1c[nH]c2ccccc12)C(=O)N[C@@H](CCCCN)C(=O)N[C@@H](CCCNC(=N)N)C(=O)N[C@@H](CCCCN)C(=O)N[C@@H](Cc1c[nH]c2ccccc12)C(N)=O)C(=O)N[C@@H](Cc1c[nH]c2ccccc12)C(=O)N[C@@H](CCCCN)C(=O)N[C@@H](CCCNC(=N)N)C(=O)N[C@@H](CCCCN)C(=O)N[C@@H](Cc1c[nH]c2ccccc12)C(N)=O [KM14, W-K-R-K-W-C-----C-W-K-R-K-W]
[2]; 8 mg/kg, in PBS, CD1 mice
  signs observed on tested animals: immediate death

## CC(=O)N[C@@H](Cc1ccccc1)C(=O)N[C@@H](CCCCN)C(=O)N[C@@H](CSSC[C@H](NC(=O)[C@H](CCCCN)NC(=O)[C@H](Cc1ccccc1)NC(C)=O)C(=O)N[C@@H](CCCNC(=N)N)C(=O)N[C@@H](CCCCN)C(=O)N[C@@H](Cc1ccc(O)cc1)C(N)=O)C(=O)N[C@@H](CCCNC(=N)N)C(=O)N[C@@H](CCCCN)C(=O)N[C@@H](Cc1ccc(O)cc1)C(N)=O [KM16, F-K-C-R-K-Y] (I: Ac-FKCRKY-NH2 / II: Ac-FKCRKY-NH2; disulfide I:3-II:3)
[1]; Candida albicans SC5314
  antifungal activity relative to comparator peptides (in words): very promising antifungal activity compatible with that of KM12 and KM14
[1]
  percent of C. albicans killed at 5 μM concentration: > 90%

## CC(=O)N[C@H]1CSSC[C@@H](C(N)=O)NC(=O)[C@H](Cc2ccc(O)cc2)NC(=O)[C@H](CCCCN)NC(=O)[C@H](CCCNC(=N)N)NC(=O)[C@H](CCCCN)NC(=O)[C@H](Cc2ccccc2)NC1=O [KM17, C-F-K-R-K-Y-C] (Ac-CFKRKYC-NH2; disulfide 1-7)
[1]; Candida albicans SC5314
  antifungal activity relative to comparator peptides (in words): very promising antifungal activity compatible with that of KM12 and KM14
[1]
  percent of C. albicans killed at 5 μM concentration: > 90%

## CC(=O)N[C@@H](Cc1ccc(O)cc1)C(=O)N[C@@H](CCCCN)C(=O)N[C@@H](CCCNC(=N)N)C(=O)N[C@@H](CCCCN)C(=O)N[C@@H](Cc1ccccc1)C(=O)N[C@@H](Cc1ccccc1)C(=O)N[C@@H](CCCCN)C(=O)N[C@@H](CCCNC(=N)N)C(=O)N[C@@H](CCCCN)C(=O)N[C@@H](Cc1ccc(O)cc1)C(N)=O [KM23, Y-K-R-K-F-F-K-R-K-Y] (Ac-YKRKFFKRKY-NH2)
[5]
  MIC: 2.4 µg/mL (≈ 1.59 µM)
[6]
  MIC: 1.2 to 4.7 µg/mL
[7]
  MIC: 4.7 µg/mL (≈ 3.12 µM)
[8]
  MIC: 4.7 µg/mL (≈ 3.12 µM)
[9]
  MIC: 75.4 µg/mL (≈ 50.1 µM)
[10]
  MIC: 2.4 to 4.7 µg/mL
[1]; Candida albicans SC5314
  LD50 in killing assays: 62.5 nM

## CC(=O)N[C@@H](Cc1ccc(O)cc1)C(=O)N[C@@H](CCCCN)C(=O)N[C@@H](CCCNC(=N)N)C(=O)N[C@@H](CCCCN)C(=O)N[C@@H](Cc1ccccc1)C(=O)N[C@@H](CCCCN)C(=O)N[C@@H](CCCNC(=N)N)C(=O)N[C@@H](CCCCN)C(=O)N[C@@H](Cc1ccc(O)cc1)C(N)=O [KM29, Y-K-R-K-F-K-R-K-Y] (Ac-YKRKFKRKY-NH2)
[5]
  MIC: 2.1 to 4.2 µg/mL
[6]
  MIC: 2.1 to 4.3 µg/mL
[7]
  MIC: 4.2 µg/mL (≈ 3.09 µM)
[8]
  MIC: 4.2 to 8.4 µg/mL
[9]
  MIC: 67.5 µg/mL (≈ 49.7 µM)
[10]
  MIC: 2.1 to 4.2 µg/mL
[1]; Candida albicans SC5314
  LD50 in killing assays: 62.5 nM

— patent US9556226B2, “Peptides with antifungal activity and methods of using the peptides” (THE BOARD OF TRUSTEES OF THE UNIVERSITY OF ARKANSAS, priority 2013, dated 2017)
